The record followed here is patent publication US11702417B2, “Compounds for improving mRNA splicing” (The General Hospital Corporation, priority 2015, dated 2023).

The test system of the assay is FD (familial dysautomonia) IKBKAP minigene, exon 20 inclusion, in HEK293T cells. Briefly: Primary splicing assay (FD IKBKAP minigene, Firefly/Renilla luciferase reporter in HEK293T). Type of assay: cell-based, human. As to conditions: Homo sapiens, HEK-293T; for EC (maximum kinetin efficacy): HEK293T, read-out: ECk (compound concentration at which the maximum kinetin efficacy (200 μM) is reached). Here is the method: As used herein, the expression “ECk” refers to the compound concentration at which the maximum kinetin efficacy (200 μM) is reached.
Splicing analysis was made possible by using an FD (familial dysautomonia) IKBKAP minigene which contained exon 19 through exon 21, including intervening introns, and also the T→C Thymine to cytosine transition located 6 base-pairs from the end of IKBKAP exon 20; See SEQ ID NO:3 for the complete sequence of plasmid pcDNA3.1/V5HisTOPO with Renilla-Familial Dysautonomia minigene-Firefly. Firefly luciferase (SEQ ID NO:14) was utilized as a splicing reporter, located downstream of exon 21, and Renilla luciferase (SEQ ID NO:13) was used as a control, located upstream of exon 19. The sequence of exon 19 is presented as SEQ ID NO:7; the Intron between Exon 19 and Exon 20 is SEQ ID NO:8; exon 20 is SEQ ID NO:9; the intron between […]; exon 21 is SEQ ID NO: 11, and the spliced sequence of exons 19-20-21 is SEQ ID NO:12. HEK293T cells were plated in a 6-well plate 24 hours prior to transfection. Transfection was carried out using a mixture of Opti-MEM (GIBCO ref. 31985), IKBKAP minigene, and Fugene HID (PROMEGA ref. E2311), incubated in DMEM media containing HEK293T cells at 37° C. The ratio of Opti-MEM, minigene, and Fugene was kept at approximately 9:1.5:1, with a total volume of 150 μL of transfection mixture applied per well.
After 4 hours of transfection, the cells were then plated in a 96-well plate coated with poly-L-lysine (SIGMA cat.P4707) for treatment scheduled 24 hours later. […] After 24 hours of treatment, cells were washed in the poly-L-lysine coated 96-well plate using PBS and subsequently harvested using Passive Lysis Buffer (Promega cat.E196). Cell lysate was transferred to a black and white 96-well plate and analyzed for splicing correction using a Glomax luminometer (PROMEGA GloMax® 96 Microplate Luminometer w/Dual Injectors cat.E6521) and Promega Dual Glo Firefly and Stop and Glo Renilla reagents (Cat.E196). The compound's ability to correct splicing and promote exon 20 inclusion was marked by an increase in Firefly signal. Renilla signal, which is independent of exon 20 inclusion, was used to correct for cell number. Using the ratio of Firefly to Renilla signal, a dose response curve was produced, which referenced kinetin and DMSO Firefly/Renilla ratios as positive and negative controls, respectively.
For orientation: A reporter such as luciferase makes a cellular process visible.

[1] abbreviates: Firefly/Renilla ratio, 24 hours of treatment.
[2] abbreviates: max efficacy in Primary Assay, Firefly/Renilla ratio, kinetin and DMSO as positive and negative controls, 24 hours of treatment, read-out: Emax (%).
Where [3] appears, read: max efficacy, value marked (RT-PCR), footnote a: Firefly inhibitor, read-out: Emax (%) (RT-PCR).

Where two headings read alike, the source gives them in different places.

As to `Fc1c[nH]c2nc(Cl)nc(NCc3nccs3)c12` [(116)], under setting [1], the EC (maximum kinetin efficacy) was 31.8 µM. Moreover, the Emax – broadly, the greatest response seen or fitted, relative to the assay's reference – under setting [2] was 112%. As to `O=C(O)c1ccc(CNc2nc(Cl)nc3[nH]cc(F)c23)cc1` [(117)], the Emax under setting [2] turned out to be 23%. As to `CN(C)c1nc2c(NCc3ccco3)nc(Cl)nc2[nH]1` [(118)], under setting [1], the EC (maximum kinetin efficacy) was determined as 10.5 µM. The Emax under setting [2] worked out at 112%. On to `Cc1cc2c(NCc3ccncc3)nc(Cl)nc2[nH]1` [(119)], for which the EC (maximum kinetin efficacy) under setting [1] is 11.2 µM. For the same compound, the Emax under setting [2] came to 114%. `Cc1c[nH]c2nc(Cl)nc(NCc3ccncc3)c12` [(120)]: the EC (maximum kinetin efficacy) under setting [1] amounted to 2.75 µM. Moreover, the maximal effect (Emax) under setting [2] came to 166%. As to `Cc1cn(CCO)c2nc(Cl)nc(NCc3ccncc3)c12` [(121)], the EC (maximum kinetin efficacy) under setting [1] was 17.3 µM. Further, under setting [2], the Emax came to 189%. Taken in the same sequence, the figures for `OCCn1ccc2c(NCc3ccncc3)nc(Cl)nc21` [(122)] were 5.65 µM and 256%.

As to `Cc1c[nH]c2nc(Cl)nc(NCc3nccs3)c12` [(123)], the EC (maximum kinetin efficacy) under setting [1] amounted to 4.9 µM. For the same compound, under setting [2], the Emax worked out at 92%. Taken in the same sequence, the figures for `COc1nc2c(NCc3ccco3)nc(Cl)nc2[nH]1` [(124)] were 2.41 µM and 180%. With `Cc1cn(CCO)c2nc(Cl)nc(NCc3nccs3)c12` [(125)], the EC (maximum kinetin efficacy) under setting [1] came out at 6.52 µM. Besides, under setting [2], the Emax is 225%. The matching figures for `Cc1c[nH]c2nc(Cl)nc(NCc3ccncn3)c12` [(126)]: 4.73 µM and 155%. Taken in the same sequence, the figures for `OCCn1ccc2c(NCc3ccncn3)nc(Cl)nc21` [(127)] were 5.45 µM and 264%. Consider `Cc1cn(CCO)c2nc(Cl)nc(NCc3ccncn3)c12` [(128)], for which, under setting [1], the EC (maximum kinetin efficacy) turned out to be 15.4 µM. Further, the Emax under setting [2] was 155%. The matching figures for `Clc1nc(NCc2ccncn2)c2nc[nH]c2n1` [(129)]: 5.6 µM and 169%.

With `OCCn1cc(F)c2c(NCc3nccs3)nc(Cl)nc21` [(130)], under setting [1], the EC (maximum kinetin efficacy) is 8.9 µM. Besides, the Emax under setting [2] is 201%. The matching figures for `Clc1nc(NCc2nccs2)c2nc[nH]c2n1` [(131)]: 7 µM and 190%. For `O[C@H]1C=C[C@H](n2ccc3c(NCc4ccco4)nc(Cl)nc32)C1` [(132)], the Emax under setting [3] is 67.7%.

As for `[N-]=[N+]=Nc1nc2c(NCc3ccco3)nc(Cl)nc2[nH]1` [(133)], the EC (maximum kinetin efficacy) under setting [1] stood at 11.8 µM. Under setting [2], the Emax was 143%. Taken in the same sequence, the figures for `Clc1nc(NCc2ccncc2)c2nc[nH]c2n1` [(134)] were 6.25 µM and 174%. As for `OCCn1cc(F)c2c(NCc3ccncc3)nc(Cl)nc21` [(135)], under setting [1], the EC (maximum kinetin efficacy) worked out at 9.06 µM. Besides, the Emax under setting [2] was 194%. As for `Cc1cc2c(NCc3ccncn3)nc(Cl)nc2[nH]1` [(136)], the EC (maximum kinetin efficacy) under setting [1] is 7.52 µM. Moreover, under setting [2], the Emax was determined as 143%. Taken in the same sequence, the figures for `OCCn1ccc2c(NCc3nccs3)nc(Cl)nc21` [(137)] were 7.25 µM and 214%. Regarding `OCCn1cc(F)c2c(NCc3ccncn3)nc(Cl)nc21` [(138)], the EC (maximum kinetin efficacy) under setting [1] came to 12.8 µM. Moreover, under setting [2], the Emax was found to be 174%. Turning to `O[C@@H]1C=C[C@H](n2ccc3c(NCc4ccco4)nc(Cl)nc32)C1` [(139)], the Emax under setting [3] was 52.2%. With `Clc1nc(NCc2ccncc2)c2nc(C3CC3)[nH]c2n1` [(141)], under setting [2], the Emax was 103%. As to `Clc1nc(NCc2nccs2)c2nc(C3CC3)[nH]c2n1` [(142)], under setting [1], the EC (maximum kinetin efficacy) was determined as 16.1 µM. In addition, the Emax under setting [2] was 121%.

In the case of `Cc1[nH]c2nc(Cl)nc(NCc3ccco3)c2c1Br` [(143)], the Emax under setting [2] was 24%. As for `Clc1nc(NCc2ccncn2)c2nc(C3CC3)[nH]c2n1` [(144)], under setting [1], the EC (maximum kinetin efficacy) was found to be 7.7 µM. Further, under setting [2], the Emax turned out to be 127%. `N#Cc1c[nH]c2nc(Cl)nc(NCc3ccco3)c12` [(145)]: under setting [2], the Emax turned out to be 59%.
